# Reference: US7709444B2, “Echinocandin pharmaceutical formulations containing micelle-forming surfactants” (Pfizer Inc., priority 1999, dated 2010)
# *1 amine or outer side, *2 acyl side, *3 side chain or, on linkers, in order; H or OH if unused. Where a SMILES comes first, the peptide text is derived from it. Bridges are numbered along the chain shown (N, C = ends). [ ]: non-standard residue; d: D form. The star is where a group is joined. ξ: configuration not given here. pTerphenylCO(4''-OnC5H11) = CCCCCOc1ccc(-c2ccc(-c3ccc(C(=O)*)cc3)cc2)cc1; ξOrn(4,5-diOH) = O=C(C(CC(O)C(O)N[*:3])N[*:1])[*:2]; ξhTyr(βξ-OH,γξ-OH) = NC(C(=O)O)C(O)C(O)c1ccc(O)cc1; ξPro(3ξ-OH,4ξ-Me) = CC1CNC(C(=O)O)C1O; Hyp = O=C(O)[CH]1C[CH](O)CN1
# Assays:
# [1] = Stability of solution formulations, related substances by reverse phase HPLC, storage at 40° C.; format: physicochemical; details: 6(a) 10 mg/ml, Poly 80(25), no buffer
# Protocol: (§1) The stability of solution and freeze-dried formulations was evaluated by monitoring a sample of the formulation for the percent increase in related substances by reverse phase HPLC at initial, 2 weeks and 4 weeks of storage at 40° C.
# [2] = Stability of freeze-dried formulations, related substances by reverse phase HPLC, storage at 40° C.; format: physicochemical
# Protocol: as §1
smiles,measurement,setting,value
"CCCCCOc1ccc(-c2ccc(-c3ccc(C(=O)NC4CC(O)C(O)NC(=O)C5C(O)C(C)CN5C(=O)C(C(C)O)NC(=O)C(C(O)C(O)c5ccc(O)cc5)NC(=O)C5CC(O)CN5C(=O)C(C(C)O)NC4=O)cc3)cc2)cc1 (stereo not drawn) [Compound 6(a)] ({pTerphenylCO(4''-OnC5H11)}-[ξOrn(4,5-diOH)]T[Hyp][ξhTyr(βξ-OH,γξ-OH)]T[ξPro(3ξ-OH,4ξ-Me)]; lactam 1-C; configuration not given here)",Percent Related Substances,"[1]; Man(50), 0 wks",3.68%
same,Percent Related Substances,"[1]; Man(50), 2 wks",16.65%
same,Percent Related Substances,"[1]; Man(50), 4 wks",23.68%
same,Percent Related Substances,"[1]; co-solvent 1% PEG 3350, 0 wks",3.68%
same,Percent Related Substances,"[1]; co-solvent 1% PEG 3350, 2 wks",21.56%
same,Percent Related Substances,"[1]; co-solvent 40% PEG 400, 0 wks",3.73%
same,Percent Related Substances,"[1]; co-solvent 40% PEG 400, 2 wks",15.26%
same,Percent Related Substances,"[1]; co-solvent 40% PEG 400, 4 wks",23.99%
same,% Related Substances,"[2]; 6(a) Potency 1, Poly 80(25), Cit(1.9), Man(50), 0 wks",3.22%
same,% Related Substances,"[2]; 6(a) Potency 1, Poly 80(25), Cit(1.9), Man(50), 2 wks",10.24%
same,% Related Substances,"[2]; 6(a) Potency 1, Poly 80(25), Cit(1.9), Man(50), 4 wks",12.16%
same,% Related Substances,"[2]; 6(a) Potency 1, Poly 80(25), Cit(9.6), Man(50), 0 wks",3.36%
same,% Related Substances,"[2]; 6(a) Potency 1, Poly 80(25), Cit(9.6), Man(50), 2 wks",11.74%
same,% Related Substances,"[2]; 6(a) Potency 1, Poly 80(25), Cit(9.6), Man(50), 4 wks",18.63%
same,% Related Substances,"[2]; 6(a) Potency 1, Poly 80(25), Cit(19.2), Man(50), 0 wks",3.37%
same,% Related Substances,"[2]; 6(a) Potency 1, Poly 80(25), Cit(19.2), Man(50), 2 wks",17.29%
same,% Related Substances,"[2]; 6(a) Potency 1, Poly 80(25), Cit(19.2), Man(50), 4 wks",22.61%
same,% Related Substances,"[2]; 6(a) Potency 5, Poly 80(12.5), no B, Lac(10), Man(50), 0 wks",6.42%
same,% Related Substances,"[2]; 6(a) Potency 5, Poly 80(12.5), no B, Lac(10), Man(50), 2 wks",6.98%
same,% Related Substances,"[2]; 6(a) Potency 5, Poly 80(12.5), no B, Lac(10), Man(50), 4 wks",6.85%
same,% Related Substances,"[2]; 6(a) Potency 8, Poly 80 (20), no B, Lac(10), Man(50), 0 wks",5.99%
same,% Related Substances,"[2]; 6(a) Potency 8, Poly 80 (20), no B, Lac(10), Man(50), 2 wks",6.16%
same,% Related Substances,"[2]; 6(a) Potency 8, Poly 80 (20), no B, Lac(10), Man(50), 4 wks",5.74%
same,% Related Substances,"[2]; 6(a) Potency 10, Poly 80(25), Cit(9.6), Suc(5), Man(50), 0 wks",3.70%
same,% Related Substances,"[2]; 6(a) Potency 10, Poly 80(25), Cit(9.6), Suc(5), Man(50), 2 wks",5.60%
same,% Related Substances,"[2]; 6(a) Potency 10, Poly 80(25), Cit(9.6), Suc(5), Man(50), 4 wks",6.01%
same,% Related Substances,"[2]; 6(a) Potency 10, Poly 80(25), Cit(9.6), Suc(10), Man(50), 0 wks",3.77%
same,% Related Substances,"[2]; 6(a) Potency 10, Poly 80(25), Cit(9.6), Suc(10), Man(50), 2 wks",5.41%
same,% Related Substances,"[2]; 6(a) Potency 10, Poly 80(25), Cit(9.6), Suc(10), Man(50), 4 wks",5.88%
same,% Related Substances,"[2]; 6(a) Potency 10, Poly 80(25), Cit(9.6), Suc(50), no BA, 0 wks",3.60%
same,% Related Substances,"[2]; 6(a) Potency 10, Poly 80(25), Cit(9.6), Suc(50), no BA, 2 wks",5.4%
same,% Related Substances,"[2]; 6(a) Potency 10, Poly 80(25), Cit(9.6), Suc(50), no BA, 4 wks",6.01%
same,% Related Substances,"[2]; 6(a) Potency 10, Poly 80(25), Cit(9.6), Tre(50), no BA, 0 wks",3.73%
same,% Related Substances,"[2]; 6(a) Potency 10, Poly 80(25), Cit(9.6), Tre(50), no BA, 2 wks",4.83%
same,% Related Substances,"[2]; 6(a) Potency 10, Poly 80(25), Cit(9.6), Tre(50), no BA, 4 wks",6.19%
same,% Related Substances,"[2]; 6(a) Potency 10, Poly 80(25), Tar(1.13), Fru(10), Man(50), 0 wks",2.49%
same,% Related Substances,"[2]; 6(a) Potency 10, Poly 80(25), Tar(1.13), Fru(10), Man(50), 4 wks",2.42%
same,% Related Substances,"[2]; 6(a) Potency 10, Poly 80(25), no B, Lac(10), Man(50) (first of two identical lines), 0 wks",4.56%
same,% Related Substances,"[2]; 6(a) Potency 10, Poly 80(25), no B, Lac(10), Man(50) (first of two identical lines), 2 wks",4.51%
same,% Related Substances,"[2]; 6(a) Potency 10, Poly 80(25), no B, Lac(10), Man(50) (first of two identical lines), 4 wks",4.85%
same,% Related Substances,"[2]; 6(a) Potency 10, Poly 80(25), no B, Lac(10), Man(50) (second of two identical lines), 0 wks",4.06%
same,% Related Substances,"[2]; 6(a) Potency 10, Poly 80(25), no B, Lac(10), Man(50) (second of two identical lines), 2 wks",5.47%
same,% Related Substances,"[2]; 6(a) Potency 10, Poly 80(25), no B, Lac(10), Man(50) (second of two identical lines), 4 wks",5.17%
same,% Related Substances,"[2]; 6(a) Potency 10, Poly 80(25), no B, PEG6000(10), Man(50), 0 wks",4.13%
same,% Related Substances,"[2]; 6(a) Potency 10, Poly 80(25), no B, PEG6000(10), Man(50), 2 wks",4.47%
same,% Related Substances,"[2]; 6(a) Potency 10, Poly 80(25), no B, PEG6000(10), Man(50), 4 wks",8.11%
same,% Related Substances,"[2]; 6(a) Potency 10, Poly 80(25), no B, PEG8000(10), Man(50), 0 wks",3.97%
same,% Related Substances,"[2]; 6(a) Potency 10, Poly 80(25), no B, PEG8000(10), Man(50), 2 wks",4.23%
same,% Related Substances,"[2]; 6(a) Potency 10, Poly 80(25), no B, PEG8000(10), Man(50), 4 wks",6.73%
same,% Related Substances,"[2]; 6(a) Potency 10, Poly 80(25), no B, Suc(10), Man(50), 0 wks",4.26%
same,% Related Substances,"[2]; 6(a) Potency 10, Poly 80(25), no B, Suc(10), Man(50), 2 wks",4.82%
same,% Related Substances,"[2]; 6(a) Potency 10, Poly 80(25), no B, Suc(10), Man(50), 4 wks",4.49%
same,% Related Substances,"[2]; 6(a) Potency 10, Poly 80(25), no B, no SA, Man(50), 0 wks",3.98%
same,% Related Substances,"[2]; 6(a) Potency 10, Poly 80(25), no B, no SA, Man(50), 2 wks",4.85%
same,% Related Substances,"[2]; 6(a) Potency 10, Poly 80(25), no B, no SA, Man(50), 4 wks",5.45%
